Assay results from patent US8071540B2, “Virus derived antimicrobial peptides” (priority 2007, dated 2011).
“Also recorded” adds a separate entry of the source. Where no end group is shown, it is not given here.

Tests used:
Pseudomonas aeruginosa [1] = assay: Bacterial lysis (broth dilution) assay, MBC; format: cell-based; parameters: MBC, Psuedomonas aeruginosa, 0 mM NaCl / MBC, Psuedomonas aeruginosa, 150 mM NaCl: unit not given here; settings: for P. aeruginosa killing, influence of physiologic NaCl: phosphate buffer with 150 mM NaCl versus low salt; for MBC, Psuedomonas aeruginosa, 0 mM NaCl: 0 mM NaCl (10 mM phosphate buffer); for MBC, Psuedomonas aeruginosa, 0 mM NaCl / MBC, Psuedomonas aeruginosa, 150 mM NaCl: 99.9% killing; for MBC, Psuedomonas aeruginosa, 150 mM NaCl: 150 mM NaCl (physiologic)
[2] = system: Methicillin Resistant S. aureus; format: cell-based, Staphylococcus aureus; parameters: unit not given here; settings: 99.9% killing; for MBC, Methicillin Resistant S. aureus, 0 mM NaCl: 0 mM NaCl (10 mM phosphate buffer); for MBC, Methicillin Resistant S. aureus, 150 mM NaCl: 150 mM NaCl (physiologic)
Staphylococcus aureus [3] = settings: 1×10^5 colony-forming units; cited from earlier work
[4] = system: diverse gram-negative and -positive bacterial isolates; settings: cited from earlier work
Staphylococcus aureus [5] = assay: Bacterial lysis (broth dilution) assay, MBC; format: cell-based; settings: for MBC, Staphylococcus aureus, 0 mM NaCl: 0 mM NaCl (10 mM phosphate buffer); for MBC, Staphylococcus aureus, 0 mM NaCl / MBC, Staphylococcus aureus, 150 mM NaCl: 99.9% killing; for MBC, Staphylococcus aureus, 150 mM NaCl: 150 mM NaCl (physiologic)
From the text: The assays for growth inhibition of a microbial target can be used to derive a minimum bactericidal concentration (MBC) value for the peptide, i.e., the concentration of peptide required to kill 99.9% (3-log decrease) of the microbial sample being tested. This value is well known to those in the art as representative of the effectiveness of a particular antimicrobial agent (e.g., an antibiotic) against a particular organism or group of organisms. In assays to detect the MBC of a peptide, growth inhibition of a bacterial population also can be measured with reference to the number of colony forming units (cfu) after exposure to a peptide relative to a control experiment without a peptide.
Bacterial lysis assay. Bacterial lysis assays were conducted in a manner similar to that described previously (Lehrer, R. I., M. E. Selsted, D. Szklarek, and F. J. 1983. Infect. Immun. 42: 10-4, 1983; Miller, M. A., R. F. Garry, J. M. Jaynes, and R. C. Montelaro, AIDS Res Hum Retroviruses 7:511-519, 1991). Bacterial suspensions were cultured in Luria-Bertani Broth to mid-log growth phase and washed by two cycles of centrifugation and suspension in 10 mM phosphate buffer. The Abs600 of the suspension was adjusted with 10 mM phosphate buffer such that, upon dilution, 5-10×10^5 cfu/mL would be treated in the assay. Bacteria were incubated for 1 h with two-fold dilutions of peptides (100 μM to 100 nM) in 96-well plates using 10 mM phosphate buffer, pH 7.2, as a diluent. Ten-fold dilutions of bacteria were performed to 1:1 000; a 100 μl aliquot from each condition was spread on the surface of tryptic soy agar plates (Difco, Detroit, Mich.) which were incubated overnight. Colonies of surviving bacteria (cfu, colony-forming units) were counted and compared to untreated controls to determine the amount of peptide-induced killing under each condition. Log killing is defined as the log of the ratio of cfu present before and after treatment with peptide. The minimal bactericidal concentration, MBC, is the peptide concentration at which 99.9% (three log) killing is achieved (Pearson et al., Antimicrob. Agents Chemother. 18: 699-708, 1980).
Results. Representative gram positive (S. aureus) and gram negative (P. aeruginosa) clinical isolates were used as the index bacteria to survey the peptides described herein.
A limitation of many host-derived antimicrobial peptides is their decreased activity at physiologic (150 mM) NaCl concentration. See Friedrich et al., Antimicrobial Agents and Chemotherapy 43:1542-1548. The peptides WLSA-5 (SEQ ID NO: 3) and LL37 were tested against the two index strains at physiologic NaCl. […] The activity of antimicrobial peptides described herein were compared to an expanded list of clinical bacterial isolates. These are summarized in Table 2 by comparing their MBCs in phosphate buffer alone (low salt) and phosphate buffer containing 150 mM NaCl (physiologic conditions). Inspection of this table would lead one skilled in the art to conclude that the activity of antimicrobial peptides described herein compare favorably to the host derived antimicrobial peptides as it relates to the spectrum and potency of antimicrobial activity.

[6] = target: Ca^2+ saturated calmodulin (Homo sapiens, UniProt P0DP23); settings: host cell Ca^2+ saturated calmodulin; cited from earlier work
Pseudomonas aeruginosa [7] = settings: 1×10^5 colony-forming units; cited from earlier work
[8] = system: HIV-1 (strain IIIB) virions; assay: Suppression of HIV-1 infectivity, p24 antigen in PHA stimulated PBMCs; format: cell-based; settings: 1 and 0.1 μM
Description: In this example human peripheral blood […] (PBMCs) were obtained from healthy volunteers and maintained in culture at a concentration of 1×10^5 viable cells per mL of medium. These cells were stimulated by the addition of phytohemagglutinin (PHA). To this a standardized titer of purified HIV-1 (strain IIIB) virions was added to PBMCs to generate a p24 antigen signal of 14,000 pg/mL five days post exposure to virus.
In order to test whether the LLP peptide, LSA-5 (SEQ ID NO: 2) was able to suppress HIV-1 activity, LSA-5 at concentrations ranging between 0.1 and 100 μM were incubated with the standard virus titer determined as above for 30 min. Virions surviving peptide exposure were isolated by ultracentrifugation at 100,000×g for 60 min. Viral pellets were used to infect PHA stimulated PBMCs prepared as described above. Five days post infection the level of p24 antigen was determined and compared to a non-peptide treated control. The data was expressed as the ratio of p24 antigen associated with peptide-treated vs. non-peptide treated HIV-1 infected cells to obtain a value referred to as percent suppression.

P. aeruginosa = assay: LSA-5 bound to Affigel 15 column, viable bacteria in eluant; settings: same column repeatedly exposed to bacterial suspensions
S. epidermidis = assay: In vitro activity against S. epidermidis
S. aureus [9] = assay: Rabbit joint model of septic arthritis
S. aureus [10] = assay: Bactericidal activity in human synovial fluid
[11] = system: P. aeruginosa attached to differentiated human bronchial epithelial cells; assay: CF cell culture model: killing of bacteria bound to airway epithelial cells; format: cell-based, Pseudomonas aeruginosa; settings: increasing peptide concentration, co-culture, FIG. 9
Burkholderia cepacia = format: cell-based; settings: standard broth dilution, FIG. 7
[12] = system: differentiated primary human airway epithelial cells; assay: CF cell culture model: transepithelial resistance as peptide toxicity

| Substance | MBC, Methicillin Resistant S. aureus, 0 mM NaCl [2] | MBC, Psuedomonas aeruginosa, 0 mM NaCl (Pseudomonas aeruginosa [1]) | MBC, Psuedomonas aeruginosa, 150 mM NaCl (Pseudomonas aeruginosa [1]) | MBC, Staphylococcus aureus, 0 mM NaCl (Staphylococcus aureus [5]) | MBC, Staphylococcus aureus, 150 mM NaCl (Staphylococcus aureus [5]) | MBC, Methicillin Resistant S. aureus, 150 mM NaCl [2] | also measured |
| --- | --- | --- | --- | --- | --- | --- | --- |
| LL37: human cathelicidin, 37-amino acid amphiphilic a-helical cationic host derived antimicrobial peptide (LLGDFFRKSKEKIGKEFKRIVQRIKDFLRNLVPRTES; Antibacterial peptide LL-37; UniProt P49913 134-170, looked up) [reference compound] | – | – | – | – | – | – | P. aeruginosa killing, influence of physiologic NaCl (Pseudomonas aeruginosa [1]): not affected by NaCl inclusion |
| LLP1: prototypical lentiviral lytic peptide, amino acids 828-856 of the HIV-1 viral isolate HXB2R Env (SEQ ID NO: 19) (RVIEVVQGACRAIRHIPRRIRQGLERIL; Human immunodeficiency virus type 1) [reference compound] | 16000 | 1000 | 1000 | 8000 nM | 16000 nM | – | time to nearly sterilize suspension, S. aureus (Staphylococcus aureus [3]): ≤ 60 s; antibacterial activity compared with magainin-2 [4]: equal to, or more potent than magainin-2; binding affinity to calmodulin [6]: near nanomolar affinity; time to nearly sterilize suspension, P. aeruginosa (Pseudomonas aeruginosa [7]): ≤ 60 s |
| RRVVRRVRRVVRRVVRVVRRVVRR [LBU-2] | – | 1500 | 800 | 1500 nM | – | – | – |
| RRVVRRVRRVVRRVVRVVRRVVRRVRRVVRRVVRVVRRVVRR (RRVVRRVRRVVRRVVRVVRRVVRRVRRVVRRVVRVVRRVVRR; Antimicrobial peptide) [LBU-3.5] | 1500 | 400 | 400 | 1000 nM | 600 nM | 200 | – |
| RVIRVVQRACRAIRHIVRRIRQGLRRIL (RVIRVVQRACRAIRHIVRRIRQGLRRIL; Antimicrobial peptide) [SA-5] | – | 1000 | 1000 | 1000 nM | – | – | – |
| RVIRVVQRACRAIRHIVRRIRQGLRRILRVV [LSA-5, RVIRVVQRACRAIRHIVRRIRQGLRRILRVV] | 150 | 800 | 800 | 1000 nM | 1000 nM | – | reduction of HIV-1 infectivity [8]: drop off this inhibitory activity; passages of bacterial suspension over which the column maintained activity (P. aeruginosa): up to 6 passages; activity against S. epidermidis in vitro (S. epidermidis): highly active; bacteria (colony forming units) in joint fluid (S. aureus [9]; 50, 100 and 200 μM intraarticularly, 1 h after instillation, versus non-peptide treated joint, FIG. 11): dose-dependent decrease in colony forming units; also recorded: significantly increases bacterial killing; bacterial load in joint, comparison with 0.35% neomycin (S. aureus [9]; intraarticular at 0, 1 and 2 h, FIG. 12): nearly as effective as a standard concentration of neomycin; adverse toxicity in animal experiments (S. aureus [9]; peptide administered alone, intraarticular): no adverse toxicity was observed; bacterial load in joint (S. aureus [9]; two treatments of 150 μM at 0 and 1 h, 1 h post-treatment, versus phosphate buffer): significant decrease; concentration at which peptide is still active in synovial fluid (S. aureus [10]; 1:4 dilution of human synovial fluid, FIG. 10): 128 µM; effect of synovial fluid on activity (S. aureus [10]; versus phosphate buffer containing physiologic NaCl): clearly impairs the activity |
| RVVRVVRRVVRRVRRVVRRVVRVVRRVVRRVRRVVRRVVRVVRRVVRR [LBU-4] | – | 800 | 400 | 800 nM | 800 nM | – | – |
| RVVRV VRRWV RR (RVVRVVRRWVRR; Antimicrobial peptide) [WLBU-1] | 50,000 | 400 | 2500 | 30,000 nM | 10,000 nM | 50,000 | – |
| RVVRVVRRWVRRVRRVWRRVVRVVRRWVRRVRRVWRRVVRVVRRWRVV (RVVRVVRRWVRRVRRVWRRVVRVVRRWVRRVRRVWRRVVRVVRRWRVV; Antimicrobial peptide) [WLBU-4] | 1500 | 1500 | 400 | 3,000 nM | 600 nM | 200 | – |
| RWIRVVQRWCRAIRHIWRRIRQGLRRWLRVV [WLSA-5, RWIRVVQRWCRAIRHIWRRIRQGLRRWLRVV] | 150 | 1000 | 1000 | 1000 nM | 1000 nM | – | viability of bacteria bound to epithelial cells [11]: decrease in bacterial viability; P. aeruginosa killing, influence of physiologic NaCl (Pseudomonas aeruginosa [1]): not affected by NaCl inclusion; also recorded: maintained its activity in low and physiologic salt conditions; S. aureus killing, influence of physiologic NaCl (Staphylococcus aureus [5]; phosphate buffer with 150 mM NaCl versus low salt): not influenced by NaCl in the same way as LL37; also recorded: maintained its activity in low and physiologic salt conditions; activity against B. cepacia clinical isolate (Burkholderia cepacia): significantly more active than LSA-5; change in transepithelial resistance ([12]; at a decrease in bacterial counts by two orders of magnitude): less than 50%; effect on trans-epithelial resistance ([12]; compared with LL-37): transient and not significantly different from LL-37 |
| VRRVVRRVVRVVRRVVRRVRRVVRRVVRVV RRVVRR (VRRVVRRVVRVVRRVVRRVRRVVRRVVRVVRRVVRR; Antimicrobial peptide) [LBU-3] | – | 1500 | 800 | 1500 nM | 1500 nM | – | – |
| VRRVWRRVVRVVRRWVRRVRRVWRRVVRVV RRWVRR (VRRVWRRVVRVVRRWVRRVRRVWRRVVRVVRRWVRR; Antimicrobial peptide) [WLBU-3] | 400 | 1500 | 800 | 3,000 nM | 600 nM | 100 | – |
